# Experimental data: patent US9079913B2, “Spiro-oxindole MDM2 antagonists” (The Regents of the University of Michigan, priority 2009, dated 2015)
# Like-named read-outs stand apart in the source and are kept apart here.
# What was measured:
# [1] = target: recombinant human His-tagged MDM2 protein (residues 1-118) (Homo sapiens (Human), UniProt Q00987); assay: Fluorescence-polarization MDM2 binding assay;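 note: fluorescence polarization read after three hours of incubation in potassium phosphate buffer containing bovine gamma globulin and Triton X-100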
# [2] = test system: cancer cell lines with wild-type p53 / mutated or deleted p53 (ATCC); assay: Cell growth assay (WST-8), other cancer cell lines; format: cell-based
# [3] = test system: Isogenic HCT-116 colon cancer cell lines; assay: cells; format: cell-based;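 note: cells grown in 96-well plates in McCoy's 5A medium with 10% FBS, exposed to compound for 4 days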
# Procedure: Cells were seeded in 96-well flat bottom cell culture plates at a density of 2−3×10^3 cells/well with compounds and incubated for 4 days.
# [4] = In vitro microsomal stability, rat; format: in vitro ADME; conditions: for Microsomal stability, % remaining: Rat Microsome, same batch
# [5] = In vitro microsomal stability, human; format: in vitro ADME; conditions: for Microsomal stability, % remaining: Human Microsome, same batch
# [6] = Table 19A, FP binding assay, read-out: MDM2 IC50
# [7] = Homo sapiens, PC-3, Table 19A, PC-3 cells, deleted p53, cell growth, read-out: PC-3 (deleted p53) IC50
# [8] = Homo sapiens, SJSA-1, Table 19A, SJSA-1 cells, p53 wild-type, cell growth, read-out: SJSA-1 (p53 wild-type) IC50
# recombinant human His-tagged MDM2 protein (residues 1-118), sequence (Q00987 1-118): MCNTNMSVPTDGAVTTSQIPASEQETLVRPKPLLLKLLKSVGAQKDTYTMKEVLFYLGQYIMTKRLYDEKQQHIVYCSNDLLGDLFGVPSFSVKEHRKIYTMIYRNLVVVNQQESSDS
compound,measurement,setting,value
CC(C)(C)C[C@H]1N[C@@H](C(=O)N[C@H]2C[C@@](C)(O)C2)[C@H](c2cccc(Cl)c2)[C@@]12C(=O)Nc1cc(F)c(F)cc12 [C035],IC50,[1]; [6],< 3 µM
same,IC50,[2]; [7],> 10 µM
CC(C)(C)C[C@H]1N[C@@H](C(=O)NCCCN2CCCC2)[C@H](c2cccc(Cl)c2F)[C@@]12C(=O)Nc1cc(Cl)ccc12 [MI-519-43],IC50,"[3]; Homo sapiens, HCT-116, read-out: HCT-116 (p53-/-) IC50, Table 19A, HCT-116 p53-/-, cell growth",4.1 ± 0.5 µM
same,IC50,"[3]; Homo sapiens, HCT-116, read-out: HCT-116 (p53 wild-type) IC50, Table 19A, HCT-116 p53 wild-type, cell growth",0.9 µM
same,IC50,"[2]; Homo sapiens, LNCaP, Table 19A, LNCAP cells, p53 wild-type, cell growth, read-out: LNCAP (p53 wild-type) IC50",1 µM
same,IC50,[2]; [7],3.4 µM
same,IC50,[2]; [8],0.9 ± 0.1 µM
same,% of compound remaining when incubated in rat liver microsomes,"[4]; Table 17, 0 min",100%
same,% of compound remaining when incubated in rat liver microsomes,"[4]; Table 17, 4 min",92.3%
same,% of compound remaining when incubated in rat liver microsomes,"[4]; Table 17, 6 min",86.1%
same,% of compound remaining when incubated in rat liver microsomes,"[4]; Table 17, 10 min",70.6%
same,% of compound remaining when incubated in rat liver microsomes,"[4]; Table 17, 15 min",69.9%
same,% of compound remaining when incubated in rat liver microsomes,"[4]; Table 17, 30 min",62.5%
same,microsomal stability (in words),[4]; rat liver microsomes,improved microsomal stability over MI-219
CC(O)C(O)CCNC(=O)[C@@H]1N[C@H](CC(C)(C)C)[C@]2(C(=O)Nc3cc(Cl)c(F)cc32)[C@H]1c1cccc(Cl)c1 (stereo partly drawn) [MI-519-31],IC50,"[3]; read-out: HCT-116 (p53-/-) IC50, Table 19A, HCT-116 p53-/-, cell growth",20.1 ± 2.5 µM
same,IC50,"[3]; read-out: HCT-116 (p53 wild-type) IC50, Table 19A, HCT-116 p53 wild-type, cell growth",2 ± 0.8 µM
same,IC50,"[2]; Table 19A, LNCAP cells, p53 wild-type, cell growth, read-out: LNCAP (p53 wild-type) IC50",1.3 ± 0.2 µM
same,IC50,"[2]; Table 19A, PC-3 cells, deleted p53, cell growth, read-out: PC-3 (deleted p53) IC50",24.7 ± 2 µM
same,% of compound remaining when incubated in rat liver microsomes at indicated time (min),[4]; 0 min,100%
same,% of compound remaining when incubated in rat liver microsomes with NADPH,[4]; 0 min,100.00%
same,% of compound remaining when incubated in rat liver microsomes at indicated time (min),[4]; 4 min,80.1%
same,% of compound remaining when incubated in rat liver microsomes with NADPH,[4]; 5 min,80.22%
same,% of compound remaining when incubated in rat liver microsomes at indicated time (min),[4]; 6 min,69.4%
same,% of compound remaining when incubated in rat liver microsomes at indicated time (min),[4]; 10 min,54.3%
same,% of compound remaining when incubated in rat liver microsomes with NADPH,[4]; 10 min,65.69%
same,% of compound remaining when incubated in rat liver microsomes at indicated time (min),[4]; 15 min,47.7%
same,% of compound remaining when incubated in rat liver microsomes with NADPH,[4]; 15 min,57.57%
same,% of compound remaining when incubated in rat liver microsomes at indicated time (min),[4]; 30 min,31%
same,% of compound remaining when incubated in rat liver microsomes with NADPH,[4]; 30 min,42.91%
same,% of compound remaining when incubated in rat liver microsomes with NADPH,[4]; 45 min,34.31%
same,% of compound remaining when incubated in rat liver microsomes with NADPH,[4]; 60 min,32.81%
same,"Microsomal stability, % remaining",[4]; 0 min,100.00%
same,"Microsomal stability, % remaining",[4]; 5 min,80.22%
same,"Microsomal stability, % remaining",[4]; 10 min,65.69%
same,"Microsomal stability, % remaining",[4]; 15 min,57.57%
same,"Microsomal stability, % remaining",[4]; 30 min,42.91%
same,"Microsomal stability, % remaining",[4]; 45 min,34.31%
same,"Microsomal stability, % remaining",[4]; 60 min,32.81%
same,% of compound remaining when incubated in rat liver microsomes with NADPH,"[4]; rat liver microsomes, NADPH, 0 min",100.00%
same,% of compound remaining when incubated in rat liver microsomes with NADPH,"[4]; rat liver microsomes, NADPH, 5 min",80.22%
same,% of compound remaining when incubated in rat liver microsomes with NADPH,"[4]; rat liver microsomes, NADPH, 10 min",65.69%
same,% of compound remaining when incubated in rat liver microsomes with NADPH,"[4]; rat liver microsomes, NADPH, 15 min",57.57%
same,% of compound remaining when incubated in rat liver microsomes with NADPH,"[4]; rat liver microsomes, NADPH, 30 min",42.91%
same,% of compound remaining when incubated in rat liver microsomes with NADPH,"[4]; rat liver microsomes, NADPH, 45 min",34.31%
same,% of compound remaining when incubated in rat liver microsomes with NADPH,"[4]; rat liver microsomes, NADPH, 60 min",32.81%
same,half-life,"[4]; rat, liver microsomes, rat liver microsomes with NADPH",18.7 min
same,% of compound remaining when incubated in human liver microsomes with NADPH,[5]; 0 min,100.00%
same,% of compound remaining when incubated in human liver microsomes with NADPH,[5]; 5 min,78.11%
same,% of compound remaining when incubated in human liver microsomes with NADPH,[5]; 10 min,58.15%
same,% of compound remaining when incubated in human liver microsomes with NADPH,[5]; 15 min,45.42%
same,% of compound remaining when incubated in human liver microsomes with NADPH,[5]; 30 min,22.75%
same,% of compound remaining when incubated in human liver microsomes with NADPH,[5]; 45 min,13.25%
same,% of compound remaining when incubated in human liver microsomes with NADPH,[5]; 60 min,8.56%
same,"Microsomal stability, % remaining",[5]; 0 min,100.00%
same,"Microsomal stability, % remaining",[5]; 5 min,78.11%
same,"Microsomal stability, % remaining",[5]; 10 min,58.15%
same,"Microsomal stability, % remaining",[5]; 15 min,45.42%
same,"Microsomal stability, % remaining",[5]; 30 min,22.75%
same,"Microsomal stability, % remaining",[5]; 45 min,13.25%
same,"Microsomal stability, % remaining",[5]; 60 min,8.56%
same,% of compound remaining when incubated in human liver microsomes with NADPH,"[5]; human liver microsomes, NADPH, 0 min",100.00%
same,% of compound remaining when incubated in human liver microsomes with NADPH,"[5]; human liver microsomes, NADPH, 5 min",78.11%
same,% of compound remaining when incubated in human liver microsomes with NADPH,"[5]; human liver microsomes, NADPH, 10 min",58.15%
same,% of compound remaining when incubated in human liver microsomes with NADPH,"[5]; human liver microsomes, NADPH, 15 min",45.42%
same,% of compound remaining when incubated in human liver microsomes with NADPH,"[5]; human liver microsomes, NADPH, 30 min",22.75%
same,% of compound remaining when incubated in human liver microsomes with NADPH,"[5]; human liver microsomes, NADPH, 45 min",13.25%
same,% of compound remaining when incubated in human liver microsomes with NADPH,"[5]; human liver microsomes, NADPH, 60 min",8.56%
same,half-life,"[5]; human, liver microsomes, human liver microsomes with NADPH",13 min
CC(C)(C)C[C@@H]1N[C@@H](C(=O)N[C@H]2C[C@@](C)(O)C2)[C@H](c2cccc(Cl)c2F)[C@]12C(=O)Nc1c2ccc(Cl)c1F,IC50,[1]; [6],< 0.1 µM
CC(C)(C)C[C@H]1N[C@@H](C(=O)NC2CN(CC(F)F)C2)[C@H](c2cccc(Cl)c2F)[C@@]12C(=O)Nc1cc(Cl)ccc12 [MI-519-72],IC50,"[1]; Table 19D, read-out: MDM2 Binding Affinities IC50",< 1 µM
CC(C)(C)C[C@H]1N[C@@H](C(=O)NC2CCN(S(=O)(=O)C(F)(F)F)CC2)[C@H](c2cccc(Cl)c2F)[C@@]12C(=O)Nc1cc(Cl)ccc12 [MI-780],IC50,[1]; [6],< 3 µM
same,IC50,[2]; [8],< 5 µM
CC(C)(C)C[C@H]1N[C@@H](C(=O)NCCCN2CCN(C3CC3)CC2)[C@H](c2cccc(Cl)c2F)[C@@]12C(=O)Nc1cc(Cl)ccc12 [MI-519-48],% of compound remaining when incubated in rat liver microsomes,"[4]; Table 17, 0 min",100%
same,% of compound remaining when incubated in rat liver microsomes,"[4]; Table 17, 4 min",79.8%
same,% of compound remaining when incubated in rat liver microsomes,"[4]; Table 17, 6 min",64.8%
same,% of compound remaining when incubated in rat liver microsomes,"[4]; Table 17, 10 min",48.5%
same,% of compound remaining when incubated in rat liver microsomes,"[4]; Table 17, 15 min",45.2%
same,% of compound remaining when incubated in rat liver microsomes,"[4]; Table 17, 30 min",43.7%
CC(C)(C)C[C@H]1N[C@@H](C(=O)NC2CC(O)C2)[C@H](c2cccc(Cl)c2F)[C@@]12C(=O)Nc1cc(Cl)ccc12 (stereo partly drawn) [MI-519-60],IC50,"[3]; Homo sapiens, HCT-116, read-out: HCT-116 (p53 wild-type) IC50",< 3 µM
same,cell growth inhibition (in words),[2],more potent than its epimer MI-519-63
same,IC50,"[2]; Homo sapiens, LNCaP, read-out: LNCAP (p53 wild-type) IC50",< 3 µM
same,IC50,"[2]; Homo sapiens, SJSA-1, read-out: SJSA-1 (p53 wild-type) IC50",< 3 µM
same,% of compound remaining when incubated in rat liver microsomes with NADPH,[4]; 0 min,100%
same,% of compound remaining when incubated in rat liver microsomes with NADPH,[4]; 5 min,79.93%
same,% of compound remaining when incubated in rat liver microsomes with NADPH,[4]; 10 min,63.72%
same,% of compound remaining when incubated in rat liver microsomes with NADPH,[4]; 15 min,51.52%
same,% of compound remaining when incubated in rat liver microsomes with NADPH,[4]; 30 min,40.6%
same,% of compound remaining when incubated in rat liver microsomes with NADPH,[4]; 45 min,35.16%
same,% of compound remaining when incubated in rat liver microsomes with NADPH,[4]; 60 min,29.15%
same,% of compound remaining when incubated in human liver microsomes with NADPH,[5]; 0 min,100%
same,% of compound remaining when incubated in human liver microsomes with NADPH,[5]; 5 min,83.26%
same,% of compound remaining when incubated in human liver microsomes with NADPH,[5]; 10 min,68.14%
same,% of compound remaining when incubated in human liver microsomes with NADPH,[5]; 15 min,51.54%
same,% of compound remaining when incubated in human liver microsomes with NADPH,[5]; 30 min,49.28%
same,% of compound remaining when incubated in human liver microsomes with NADPH,[5]; 45 min,40.97%
same,% of compound remaining when incubated in human liver microsomes with NADPH,[5]; 60 min,37.55%
CC(C)(C)CC1NC(C(=O)NCCN2CCCC2)C(c2cccc(Cl)c2F)C12C(=O)Nc1cc(Cl)ccc12 (stereo not drawn) [MI-120],% of compound remaining when incubated in rat liver microsomes,"[4]; Table 16, 0 min",100%
same,% of compound remaining when incubated in rat liver microsomes,"[4]; Table 16, 4 min",95.1%
same,% of compound remaining when incubated in rat liver microsomes,"[4]; Table 16, 6 min",88.1%
same,% of compound remaining when incubated in rat liver microsomes,"[4]; Table 16, 10 min",84.7%
same,% of compound remaining when incubated in rat liver microsomes,"[4]; Table 16, 15 min",82.1%
same,% of compound remaining when incubated in rat liver microsomes,"[4]; Table 16, 30 min",79%
